{"source": "ChEMBL document CHEMBL5137057", "about": "“Small Carbohydrate Derivatives as Potent Antibiofilm Agents” (J Med Chem, 2022)", "key": {"Staphylococcus aureus": {"test_system": "Staphylococcus aureus", "assay": "Antibiofilm activity against Staphylococcus aureus USA300 assessed as inhibition of biofilm formation at 256 ug/ml measured after 24 hrs by crystal violet staining based assay relative to control", "type": "functional", "parameters": "scale not given: the % may be the effect or the level left", "conditions": "dose 256 µg/ml"}, "[1]": {"molecular_target": "T1, PA-I galactophilic lectin (Pseudomonas aeruginosa (strain ATCC 15692 / PAO1 / 1C / PRS 101 / LMG12228), UniProt Q05097)", "T1 sequence (Q05097 whole entry)": "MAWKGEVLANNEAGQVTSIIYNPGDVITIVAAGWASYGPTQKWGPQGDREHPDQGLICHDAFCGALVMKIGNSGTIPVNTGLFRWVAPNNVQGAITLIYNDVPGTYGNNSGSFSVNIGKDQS", "assay": "Inhibition of FITC-labelled Pseudomonas aeruginosa LecA"}, "Streptococcus mutans [2]": {"test_system": "Streptococcus mutans", "assay": "Prevention of Streptococcus mutans adherence at 0.1 mg/ml relative to control", "type": "functional"}, "Cutibacterium acnes [3]": {"test_system": "Cutibacterium acnes", "assay": "Antibiofilm activity against Propionibacterium acnes LMG 16711 assessed as inhibition of biofilm formation at 0.08 % (w/v) incubated for 24 hrs by fluorescence based analysis", "type": "functional", "parameters": "scale not given: the % may be the effect or the level left"}, "Cutibacterium acnes [4]": {"test_system": "Cutibacterium acnes", "assay": "Antibiofilm activity against Propionibacterium acnes LMG 16711 assessed as inhibition of biofilm formation at 0.01 % (w/v) incubated for 24 hrs by fluorescence based analysis", "type": "functional", "parameters": "scale not given: the % may be the effect or the level left"}, "Pseudomonas aeruginosa [5]": {"test_system": "Pseudomonas aeruginosa", "assay": "Inhibition of Pseudomonas aeruginosa PAO1 Pyocyanin at 64 to 256 ug/ml by spectrophotometrical analysis relative to control", "conditions": "dose 64-256 µg/ml"}, "Burkholderia cepacia": {"test_system": "Burkholderia cepacia", "assay": "In vivo antibacterial activity against Burkholderia cepacia LMG 16656 infected in BALB/C mouse assessed as reduction in bacterial load in lung at 2 mg/kg, INH administered for 24 to 48 hr post bacterial infection and measured after 3 days post compound treatment in presence of tobramycin relative to control", "type": "functional", "parameters": "scale not given: the % may be the effect or the level left", "conditions": "time 3 day"}, "[6]": {"molecular_target": "Elastase (Pseudomonas aeruginosa (strain ATCC 15692 / PAO1 / 1C / PRS 101 / LMG12228)) (UniProt P14756)", "sequence (P14756 198-498 limits assumed)": "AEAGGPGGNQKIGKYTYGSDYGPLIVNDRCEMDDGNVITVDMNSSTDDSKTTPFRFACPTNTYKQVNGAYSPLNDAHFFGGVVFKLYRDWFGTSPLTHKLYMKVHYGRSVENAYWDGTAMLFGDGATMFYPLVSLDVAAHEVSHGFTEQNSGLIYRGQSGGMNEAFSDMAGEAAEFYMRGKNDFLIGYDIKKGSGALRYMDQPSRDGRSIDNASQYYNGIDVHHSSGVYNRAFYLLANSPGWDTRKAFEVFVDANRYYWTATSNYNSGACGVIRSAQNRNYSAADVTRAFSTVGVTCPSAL", "assay": "Inhibition of Pseudomonas aeruginosa PAO1 LasB elastase at 64 to 256 ug/ml incubated for 16 hrs by elastin Congo red (ECR) assay relative to control", "conditions": "dose 64-256 µg/ml"}, "Pseudomonas aeruginosa [7]": {"test_system": "Pseudomonas aeruginosa", "assay": "Antibiofilm activity against Pseudomonas aeruginosa PAO1 assessed as reduction in bacterial growth by crystal violet staining based assay", "type": "functional"}, "[8]": {"molecular_target": "3-(3-hydroxydecanoyloxy)decanoate synthase (Pseudomonas aeruginosa (strain ATCC 15692 / PAO1 / 1C / PRS 101 / LMG12228)) (UniProt Q51559)", "assay": "Inhibition of Pseudomonas aeruginosa PAO1 Rhamnolipid at 64 to 256 ug/ml by spectrophotometrical analysis relative to control", "conditions": "dose 64-256 µg/ml"}, "[9]": {"molecular_target": "Protease LasA (Pseudomonas aeruginosa) (UniProt P14789)", "sequence (P14789 whole entry)": "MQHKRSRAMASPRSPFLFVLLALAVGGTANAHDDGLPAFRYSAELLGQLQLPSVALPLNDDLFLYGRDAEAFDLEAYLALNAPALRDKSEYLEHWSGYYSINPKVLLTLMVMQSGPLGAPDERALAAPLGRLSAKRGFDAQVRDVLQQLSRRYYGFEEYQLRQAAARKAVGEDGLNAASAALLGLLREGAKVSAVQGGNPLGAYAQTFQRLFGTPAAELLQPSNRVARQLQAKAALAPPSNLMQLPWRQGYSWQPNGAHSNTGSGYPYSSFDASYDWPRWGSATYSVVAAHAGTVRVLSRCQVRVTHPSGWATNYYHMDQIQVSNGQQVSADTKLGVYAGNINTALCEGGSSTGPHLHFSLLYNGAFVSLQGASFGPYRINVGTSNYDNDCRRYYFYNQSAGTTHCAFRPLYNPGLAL", "assay": "Inhibition of Pseudomonas aeruginosa PAO1 LasA protease at 64 to 256 ug/ml using azocasein as substrate incubated for 24 hrs by spectrophotometrical analysis relative to control", "conditions": "dose 64-256 µg/ml"}, "[10]": {"assay": "Inhibition of AHL-mediated quorum sensing system in Pseudomonas aeruginosa PAO1 assessed as decrease in C4-HSL levels at 64 ug/ml by HPLC/MS analysis relative to control", "conditions": "dose 64.0 µg/ml"}, "[11]": {"assay": "Inhibition of C-terminal 6His-tagged Escherichia coli UTI89 FmlH (1 to 160 residues) expressed in Escherichia coli C600 expression system using tetramethylbenzidine as substrate incubated for 1 hr by […]"}, "Streptococcus suis": {"test_system": "Streptococcus suis", "assay": "Prevention of Streptococcus suis ATCC 700794 adherence to sucrose-dependent membrane surface at 78.1 ug/ml relative to control", "type": "functional", "conditions": "dose 78.1 µg/ml"}, "Escherichia coli": {"test_system": "Escherichia coli", "assay": "Antibiofilm activity against Escherichia coli UTI89 at 5 ug/ml incubated for 72 hrs by crystal violet staining based assay relative to control", "type": "functional", "conditions": "dose 5 µg/ml"}, "Pseudomonas aeruginosa [12]": {"test_system": "Pseudomonas aeruginosa", "assay": "Antibiofilm activity against Pseudomonas aeruginosa ATCC 27853 at 0.5 mg/ml measured after 24 hrs by crystal violet staining based assay relative to control", "type": "functional"}, "Sortase A": {"molecular_target": "Sortase A (Streptococcus mutans, UniProt Q8CM62)", "sequence (Q8CM62 whole entry)": "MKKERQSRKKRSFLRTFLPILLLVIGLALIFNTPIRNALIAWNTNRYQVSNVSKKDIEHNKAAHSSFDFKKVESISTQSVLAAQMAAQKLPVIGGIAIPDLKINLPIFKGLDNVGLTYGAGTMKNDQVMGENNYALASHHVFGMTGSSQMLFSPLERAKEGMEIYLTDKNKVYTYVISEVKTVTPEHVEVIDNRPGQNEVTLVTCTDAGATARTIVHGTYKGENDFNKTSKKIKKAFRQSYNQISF", "assay": "Inhibition of Streptococcus mutans ATCC 2517 Sortase A protease expressed in Escherichia coli BL21 expression system using Abz-LPATG-Dap(Dnp)-NH2 as substrate incubated for 1 hrs by FRET assay"}, "Streptococcus mutans [13]": {"test_system": "Streptococcus mutans", "assay": "Antibiofilm activity against Streptococcus mutans ATCC 2517 assessed as inhibition of biofilm formation at 128 ug/ml measured after 16 hrs by crystal violet staining based assay relative to control", "type": "functional", "parameters": "scale not given: the % may be the effect or the level left", "conditions": "dose 128 µg/ml"}}}
{"smiles": "O=c1cc(-c2ccc(O)cc2)oc2cc(O)c([C@@H]3O[C@H](CO)[C@@H](O)[C@H](O)[C@H]3O)c(O)c12", "note": "[ISOVITEXIN]", "values": [{"measurement": "Activity", "setting": "Staphylococcus aureus", "value": 61, "unit": "%"}]}
{"smiles": "OC[C@H]1O[C@@H](OCCCc2cn(CCn3cc([C@@H]4O[C@H](CO)[C@@H](n5cc([C@@H]6O[C@H](CO)[C@@H](n7cc(CCCO[C@@H]8O[C@H](CO)[C@H](O)[C@H](O)[C@H]8O)nn7)[C@H](O)[C@H]6O)nn5)[C@H](O)[C@H]4O)nn3)nn2)[C@H](O)[C@@H](O)[C@H]1O", "values": [{"measurement": "IC50", "setting": "[1]", "value": 220, "unit": "nM"}]}
{"smiles": "COc1cc(-c2[o+]c3cc(O[C@@H]4O[C@H](CO)[C@@H](O)[C@H](O)[C@H]4O)cc(O)c3cc2O[C@@H]2O[C@H](CO)[C@@H](O)[C@H](O)[C@H]2O)cc(OC)c1O", "values": [{"measurement": "Activity", "setting": "Streptococcus mutans [2]", "value": 60, "unit": "%"}]}
{"smiles": "CC(C)=CCc1c(O[C@@H]2O[C@H](CO)[C@@H](O)[C@H](O)[C@H]2O)cc(O)c2c(=O)c(O[C@@H]3O[C@H](CO)[C@@H](O)[C@H](O)[C@H]3O)c(-c3ccc(O)c(O)c3)oc12", "values": [{"measurement": "Activity", "setting": "Cutibacterium acnes [3]", "value": 75, "unit": "%"}, {"measurement": "Activity", "setting": "Cutibacterium acnes [4]", "value": 40, "unit": "%"}]}
{"smiles": "O=C(O)[C@H]1O[C@@H](Oc2cc3oc(-c4ccccc4)cc(=O)c3c(O)c2O)[C@H](O)[C@@H](O)[C@@H]1O", "note": "[BAICALIN]", "values": [{"measurement": "inhibition", "setting": "Pseudomonas aeruginosa [5]", "value": 61.7, "unit": "%"}, {"measurement": "Activity", "setting": "Burkholderia cepacia", "value": 99, "unit": "%"}, {"measurement": "inhibition", "setting": "[6]", "value": 77.1, "unit": "%"}, {"measurement": "MIC", "setting": "Pseudomonas aeruginosa [7]", "value": "> 1020", "unit": "µg/mL"}, {"measurement": "inhibition", "setting": "[8]", "value": 45.1, "unit": "%"}, {"measurement": "inhibition", "setting": "[9]", "value": 48.6, "unit": "%"}, {"measurement": "inhibition", "setting": "[10]", "value": 77.2, "unit": "%"}]}
{"smiles": "O=C(O)C[C@H]1[C@@H](Oc2ccccc2-c2cccc(C(=O)O)c2)O[C@H](CO)[C@H](O)[C@@H]1O", "values": [{"measurement": "Kd", "setting": "[11]", "value": 640, "unit": "nM"}]}
{"smiles": "C[C@@H]1O[C@@H](OC[C@H]2O[C@@H](Oc3c(-c4ccc(O)c(O)c4)oc4cc(O)cc(O)c4c3=O)[C@H](O)[C@@H](O)[C@@H]2O)[C@H](O)[C@H](O)[C@H]1O", "note": "[RUTIN]", "values": [{"measurement": "Activity", "setting": "Streptococcus suis", "value": 20, "unit": "%"}]}
{"smiles": "C[C@@H]1O[C@@H](O[C@@H]2[C@@H](O)[C@H](OCCc3ccc(O)c(O)c3)O[C@H](CO)[C@H]2OC(=O)/C=C/c2ccc(O)c(O)c2)[C@H](O)[C@H](O)[C@H]1O", "note": "[ACETOSIDE]", "values": [{"measurement": "Activity", "setting": "Escherichia coli", "value": 60, "unit": "%"}]}
{"smiles": "CC(=O)O[C@@H]1[C@H](O[C@H]2CC[C@H](C)[C@@]3(C)C[C@@H](/C(C)=C/CC=C(C)C)CC[C@H]23)OC[C@@H](OC(C)=O)[C@H]1OC(C)=O", "values": [{"measurement": "Activity", "setting": "Pseudomonas aeruginosa [12]", "value": 60, "unit": "%"}]}
{"smiles": "C[C@H]1O[C@@H](O[C@H]2C(=O)c3c(O)cc(O)cc3O[C@@H]2c2ccc(O)c(O)c2)[C@H](O)[C@H](O)[C@H]1O", "values": [{"measurement": "IC50", "setting": "Sortase A", "value": 16700, "unit": "nM"}, {"measurement": "Activity", "setting": "Streptococcus mutans [13]", "value": 70, "unit": "%"}]}
